# Source: patent US6379720B1, “Compositions containing hops extract and their use in water systems and process streams to control biological fouling” (Nalco Chemical Company, priority 2000, dated 2002)
# Several values for one entry are separate records, joined by “and”; a condition that tells them apart may be missing. Identical values can stand only once.
# Test system: Scenedesmus obliquus green algae
# Experiment: Synergism test of hops extract/biocide combinations (Kull Synergism Index), chlorophyll OD 650 nm endpoint
# Assay type: cell-based
# From the text: The accepted method used to determined synergism is described by Kull, F. C., Eisman, P. C., Sylwestrowicz, H. D., and Mayer, R. L. in Applied Microbiology 9:538-541 (1961), and is well known in the art.
# The equation for determining synergism is as follows:
# QaQA+Qb/QB=Synergism Index (SI)
# Where QA and QB are the concentrations of compounds A or B that produce an endpoint when acting alone, and where Qa and Qb are the concentrations of compounds A or B acting in the A/B combination required to produce an endpoint. The endpoint is defined by the particular test method, for example, an optical density.
# To determine synergism, one evaluates the Synergism Index (SI).
# The efficacy of the invention was tested in the following manner:
# Scenedesmus obliquus green algae cells were prepared in synthetic cooling water (pH 8.2) to a concentration of 10^7 CFU/ml. 100 ul of the algae suspension were added to 200 ul aliquots of hops extract antimicrobial compositions in synthetic cooling water contained in 96 well microplates (FALCON® 3075). A wide range of hops extract/biocide combinations were tested. Microplates were covered with the provided lid and incubated at 25° C. for six days with 16 hour/8 hour light/dark cycles (cool-white fluorescent lamps, 1255 lux). Following incubation, supernatant was removed from each microplate well by vacuum aspiration. […] 200 ul of dimethylsulfoxide (DMSO) were added to each microplate well to dissolve the algae cells and extract chlorophyll. The optical density at 650 nm of each extraction was determined using a plate reader (Beckman Biomek®).
# A wide range of ratios of the two active ingredients can be used, depending on several factors including the microorganisms to be controlled. In this example, data designated as QA and Qa in each case are for hops extract and data designated as QB and Qb are for the other antimicrobial (IZN, POLYQUAT, GLUT, TBTZ, DCOI, THPS, BNEF, DBNPA, and DTEA).
# [1] = with hops extract 8 ppm, Endpoint OD650 = 0.300
# [2] = with hops extract 16 ppm, Endpoint OD650 = 0.300
compound,measurement,setting,value
"O=[N+]([O-])C(Br)=Cc1ccco1 [BNEF, 2-(2-bromo-2-nitroethenyl)furan]",QB (concentration of the antimicrobial that produces the endpoint when acting alone),"Endpoint OD650 = 0.300, (32) used for synergy calculations",>16 (32) ppm
same,Qb (concentration of the antimicrobial in the combination required to produce the endpoint),"with hops extract 4 ppm, Endpoint OD650 = 0.300",16 ppm
same,Qb (concentration of the antimicrobial in the combination required to produce the endpoint),[1],16 ppm
same,Qb (concentration of the antimicrobial in the combination required to produce the endpoint),[2],1 ppm
"N#CC(Br)(Br)C(N)=O [DBNPA, 2,2-dibromo-3-nitrilopropionamide]",QB (concentration of the antimicrobial that produces the endpoint when acting alone),"Endpoint OD650 = 0.200, (32) used for synergy calculations",>16 (32) ppm
same,Qb (concentration of the antimicrobial in the combination required to produce the endpoint),"with hops extract 4 ppm, Endpoint OD650 = 0.200",16 ppm
same,Qb (concentration of the antimicrobial in the combination required to produce the endpoint),"with hops extract 16 ppm, Endpoint OD650 = 0.200",16 ppm
"CCCCCCCCn1sc(Cl)c(Cl)c1=O [DCOI, 4,5-dichloro-2-n-octyl-4-isothiazolin-3-one]",QB (concentration of the antimicrobial that produces the endpoint when acting alone),"Endpoint OD650 = 0.150, (32) used for synergy calculations",>16 (32) ppm
same,Qb (concentration of the antimicrobial in the combination required to produce the endpoint),"with hops extract 4 ppm, Endpoint OD650 = 0.150",16 ppm
same,Qb (concentration of the antimicrobial in the combination required to produce the endpoint),"with hops extract 64 ppm, Endpoint OD650 = 0.150",8 ppm and 16 ppm
"CCCCCCCCCCSCCN [DTEA, 2-(decylthio)ethanamine]",QB (concentration of the antimicrobial that produces the endpoint when acting alone),Endpoint OD650 = 0.300,16 ppm
same,Qb (concentration of the antimicrobial in the combination required to produce the endpoint),[1],4 ppm and 8 ppm
same,Qb (concentration of the antimicrobial in the combination required to produce the endpoint),[2],1 ppm and 2 ppm
"O=CCCCC=O [GLUT, glutaraldehyde]",QB (concentration of the antimicrobial that produces the endpoint when acting alone),"Endpoint OD650 = 0.250, (32) used for synergy calculations",>16 (32) ppm
same,Qb (concentration of the antimicrobial in the combination required to produce the endpoint),"with hops extract 16 ppm, Endpoint OD650 = 0.250",4 ppm
"CCNc1nc(Cl)nc(NC(C)(C)C)n1 [TBTZ, 2-(tert-butylamino)-4-chloro-6(ethylamino)-s-triazine]",QB (concentration of the antimicrobial that produces the endpoint when acting alone),Endpoint OD650 = 0.250,16 ppm
methylchloro/isothiazolone [IZN],QB (concentration of the antimicrobial that produces the endpoint when acting alone),"Endpoint OD650 = 0.100, (32) used for synergy calculations",>16 (32) ppm
same,Qb (concentration of the antimicrobial in the combination required to produce the endpoint),"with hops extract 16 ppm, Endpoint OD650 = 0.100",16 ppm
same,Qb (concentration of the antimicrobial in the combination required to produce the endpoint),"with hops extract 32 ppm, Endpoint OD650 = 0.100",16 ppm
same,Qb (concentration of the antimicrobial in the combination required to produce the endpoint),"with hops extract 64 ppm, Endpoint OD650 = 0.100",8 ppm and 16 ppm
same,Qb (concentration of the antimicrobial in the combination required to produce the endpoint),"with hops extract 128 ppm, Endpoint OD650 = 0.100",8 ppm and 16 ppm
same,Qb (concentration of the antimicrobial in the combination required to produce the endpoint),"with hops extract 256 ppm, Endpoint OD650 = 0.100",8 ppm
tetrakishydroxymethyl phosphonium sulfate [THPS],QB (concentration of the antimicrobial that produces the endpoint when acting alone),Endpoint OD650 = 0.250,16 ppm
same,Qb (concentration of the antimicrobial in the combination required to produce the endpoint),"with hops extract 4 ppm, Endpoint OD650 = 0.250",4 ppm
same,Qb (concentration of the antimicrobial in the combination required to produce the endpoint),"with hops extract 8 ppm, Endpoint OD650 = 0.250",4 ppm and 8 ppm
